{"source": "patent US20060160893A1", "about": "“Method for enhancing the quality of berry fruit” (priority 2001, published 2006)", "key": {"[1]": {"tested_on": "Botrytis gray mold of strawberry", "assay": "Example 1: field application, Botrytis gray mold of strawberry, cool storage shelf-life evaluation", "type": "in vivo", "settings": "for % Control: 7 day storage, relative to untreated check", "protocol": "(§1) All examples are conducted under field conditions using accepted grower practices. The mixtures of I and II are applied to field grown plants, not as a post harvest berry treatment.\n(§2) The use of corrected means is standard practice in field evaluations of pesticides. Corrected means are calculated as follows: [formula]\n(§3) In the following examples, Fungicide A=a mixture of cyprodinil (I) and fludioxonil (II) (mixing ratio 1.5:1) applied as a 62.5% by weight water dispersible granule (WG) formulation.\nPerformance of Fungicide a Against Botrytis Gray Mold of Strawberry. Fungicide A is applied in the field; berries are then harvested and placed into cool storage for shelf-life evaluations (no additional sprays were made after harvest)."}, "[2]": {"tested_on": "Botrytis gray mold of red raspberry", "assay": "Example 6: field application, Botrytis gray mold of red raspberry, storage evaluation", "type": "in vivo", "protocol": "as §1, §2, §3\nFungicide A is applied to field grown red raspberry and shelf-life evaluations made.\nHealthy berries are harvested from each treatment and placed into storage and evaluated for Botrytis control (see table below)."}}}
{"smiles": "O=C1C2CC=CCC2C(=O)N1SC(Cl)(Cl)Cl", "note": "(stereo not drawn) [Captan, captan]", "values": [{"measurement": "% Control", "setting": "[1]; inoculated", "result": 28, "unit": "%"}, {"measurement": "% Control", "setting": "[1]; non-inoculated", "result": 70, "unit": "%"}, {"measurement": "% Pest Incidence Fruit Rating 7 Day Storage Rating Inoculated", "setting": "[1]; strawberry variety 'Chandler', inoculated", "result": 51, "unit": "%"}, {"measurement": "% Pest Incidence Fruit Rating 7 Day Storage Rating Non-inoculated", "setting": "[1]; strawberry variety 'Chandler', non-inoculated", "result": 6, "unit": "%"}, {"measurement": "% Botrytis Infect Berries (6 Day Storage Rating)", "setting": "[2]", "result": 88.2, "unit": "%"}, {"measurement": "% Botrytis Disease Control (6 Day Storage Rating)", "setting": "[2]; relative to untreated check", "result": 7, "unit": "%"}]}
